Assay results from article doi:10.1101/2023.11.24.568596v1 (biorxiv, 2023).
One block for each molecule: values may come before it.

How the values were obtained:
Conditions in all cases: binder
NDR2 = NDR2 (Homo sapiens, UniProt Q9Y2H1)
MST1 = target: T1, MST1 (Homo sapiens, UniProt Q13043)
T1 sequence (Q13043 1-487): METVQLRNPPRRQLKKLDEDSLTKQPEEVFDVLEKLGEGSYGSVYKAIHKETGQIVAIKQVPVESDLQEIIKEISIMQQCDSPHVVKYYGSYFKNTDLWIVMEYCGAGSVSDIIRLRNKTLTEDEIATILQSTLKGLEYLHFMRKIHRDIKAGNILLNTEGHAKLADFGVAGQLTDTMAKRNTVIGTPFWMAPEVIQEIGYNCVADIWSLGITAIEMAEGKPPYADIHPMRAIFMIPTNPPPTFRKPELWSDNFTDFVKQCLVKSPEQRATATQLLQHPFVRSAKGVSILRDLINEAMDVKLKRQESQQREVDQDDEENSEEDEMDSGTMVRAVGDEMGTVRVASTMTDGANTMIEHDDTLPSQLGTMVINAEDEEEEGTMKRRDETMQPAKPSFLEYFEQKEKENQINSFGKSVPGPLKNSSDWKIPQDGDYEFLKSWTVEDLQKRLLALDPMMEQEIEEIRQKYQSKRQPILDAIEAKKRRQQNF

FES = FES (Homo sapiens, UniProt P07332)
Sequence of FES (P07332 whole entry): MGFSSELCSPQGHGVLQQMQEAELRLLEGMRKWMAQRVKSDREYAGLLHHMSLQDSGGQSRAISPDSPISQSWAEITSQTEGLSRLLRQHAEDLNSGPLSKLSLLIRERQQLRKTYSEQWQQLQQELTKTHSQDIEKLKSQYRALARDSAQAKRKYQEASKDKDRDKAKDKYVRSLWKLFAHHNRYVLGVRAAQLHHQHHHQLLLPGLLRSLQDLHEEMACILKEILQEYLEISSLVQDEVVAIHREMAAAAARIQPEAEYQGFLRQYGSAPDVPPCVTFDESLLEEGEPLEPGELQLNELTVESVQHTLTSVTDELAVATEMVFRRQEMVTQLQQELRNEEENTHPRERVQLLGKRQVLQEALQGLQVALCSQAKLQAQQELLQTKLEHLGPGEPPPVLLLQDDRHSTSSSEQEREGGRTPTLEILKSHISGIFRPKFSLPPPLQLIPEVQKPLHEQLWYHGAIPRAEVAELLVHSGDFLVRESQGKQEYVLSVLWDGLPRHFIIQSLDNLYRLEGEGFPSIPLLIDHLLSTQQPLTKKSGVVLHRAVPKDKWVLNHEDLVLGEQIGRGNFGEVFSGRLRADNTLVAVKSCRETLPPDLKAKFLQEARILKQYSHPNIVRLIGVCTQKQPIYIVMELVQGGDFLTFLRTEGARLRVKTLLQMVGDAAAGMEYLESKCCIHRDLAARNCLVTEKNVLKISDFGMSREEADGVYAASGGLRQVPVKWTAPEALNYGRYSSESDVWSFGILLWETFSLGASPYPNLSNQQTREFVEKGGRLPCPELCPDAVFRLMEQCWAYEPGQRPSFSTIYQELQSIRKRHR

EphB3 = target: T2, EphB3 (Homo sapiens, UniProt P54753)
T2 sequence (P54753 1-998): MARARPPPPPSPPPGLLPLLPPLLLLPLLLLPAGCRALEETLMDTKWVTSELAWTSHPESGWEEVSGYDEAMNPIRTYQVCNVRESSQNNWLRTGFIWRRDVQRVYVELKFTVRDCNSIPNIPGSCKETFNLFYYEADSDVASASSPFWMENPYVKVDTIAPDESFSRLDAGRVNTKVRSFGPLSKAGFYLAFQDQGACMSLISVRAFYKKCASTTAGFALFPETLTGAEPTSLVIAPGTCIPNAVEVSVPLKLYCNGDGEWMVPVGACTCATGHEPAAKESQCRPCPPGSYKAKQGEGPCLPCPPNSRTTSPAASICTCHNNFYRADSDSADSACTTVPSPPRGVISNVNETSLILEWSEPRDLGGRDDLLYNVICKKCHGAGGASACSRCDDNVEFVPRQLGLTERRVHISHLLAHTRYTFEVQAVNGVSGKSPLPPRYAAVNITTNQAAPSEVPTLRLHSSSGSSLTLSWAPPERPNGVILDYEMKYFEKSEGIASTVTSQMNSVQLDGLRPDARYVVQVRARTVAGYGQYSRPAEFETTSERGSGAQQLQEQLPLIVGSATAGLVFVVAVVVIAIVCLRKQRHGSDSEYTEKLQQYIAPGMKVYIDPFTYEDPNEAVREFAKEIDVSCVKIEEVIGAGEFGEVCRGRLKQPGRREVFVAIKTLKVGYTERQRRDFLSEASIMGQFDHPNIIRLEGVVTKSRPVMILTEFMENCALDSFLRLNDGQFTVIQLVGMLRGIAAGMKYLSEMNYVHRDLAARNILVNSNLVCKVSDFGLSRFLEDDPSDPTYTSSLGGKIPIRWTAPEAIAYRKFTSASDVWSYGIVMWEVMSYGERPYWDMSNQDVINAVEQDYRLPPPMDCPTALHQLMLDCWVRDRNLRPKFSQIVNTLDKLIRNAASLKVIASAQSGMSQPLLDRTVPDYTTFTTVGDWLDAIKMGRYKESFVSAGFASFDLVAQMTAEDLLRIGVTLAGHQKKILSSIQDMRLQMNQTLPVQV

CaMKK2 = CaMKK2 (Homo sapiens, UniProt Q96RR4)
Sequence of CaMKK2 (Q96RR4 whole entry): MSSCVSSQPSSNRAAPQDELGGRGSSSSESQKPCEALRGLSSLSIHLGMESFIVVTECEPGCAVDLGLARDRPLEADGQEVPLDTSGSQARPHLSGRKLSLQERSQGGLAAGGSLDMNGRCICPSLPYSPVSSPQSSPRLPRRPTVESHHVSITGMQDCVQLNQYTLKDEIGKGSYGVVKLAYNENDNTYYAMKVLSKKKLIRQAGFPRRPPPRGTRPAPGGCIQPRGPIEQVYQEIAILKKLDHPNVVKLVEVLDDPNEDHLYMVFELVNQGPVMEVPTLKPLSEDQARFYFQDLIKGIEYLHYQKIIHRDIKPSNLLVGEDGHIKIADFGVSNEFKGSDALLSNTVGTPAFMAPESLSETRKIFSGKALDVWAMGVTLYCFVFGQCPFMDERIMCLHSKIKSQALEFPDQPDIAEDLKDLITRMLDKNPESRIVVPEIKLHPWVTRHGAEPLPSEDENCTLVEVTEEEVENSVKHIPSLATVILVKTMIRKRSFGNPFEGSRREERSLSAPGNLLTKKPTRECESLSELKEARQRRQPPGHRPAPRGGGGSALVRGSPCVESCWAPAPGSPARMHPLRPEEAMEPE

DAPK3 = DAPK3 (Homo sapiens, UniProt O43293)
Sequence of DAPK3 (O43293 whole entry): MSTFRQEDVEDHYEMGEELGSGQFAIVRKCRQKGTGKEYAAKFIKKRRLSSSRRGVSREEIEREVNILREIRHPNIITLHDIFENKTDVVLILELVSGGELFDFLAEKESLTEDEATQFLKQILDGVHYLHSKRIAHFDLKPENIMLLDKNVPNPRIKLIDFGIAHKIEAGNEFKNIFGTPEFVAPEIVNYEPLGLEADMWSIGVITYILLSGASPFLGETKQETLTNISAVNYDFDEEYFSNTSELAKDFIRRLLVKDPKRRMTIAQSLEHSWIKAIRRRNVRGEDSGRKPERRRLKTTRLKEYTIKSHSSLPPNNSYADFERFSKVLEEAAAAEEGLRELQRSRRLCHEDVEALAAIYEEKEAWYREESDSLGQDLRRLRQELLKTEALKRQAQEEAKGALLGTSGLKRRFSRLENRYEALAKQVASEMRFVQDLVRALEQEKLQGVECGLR

Erk2 = Erk2 (Homo sapiens, UniProt P28482)
Sequence of Erk2 (P28482 whole entry): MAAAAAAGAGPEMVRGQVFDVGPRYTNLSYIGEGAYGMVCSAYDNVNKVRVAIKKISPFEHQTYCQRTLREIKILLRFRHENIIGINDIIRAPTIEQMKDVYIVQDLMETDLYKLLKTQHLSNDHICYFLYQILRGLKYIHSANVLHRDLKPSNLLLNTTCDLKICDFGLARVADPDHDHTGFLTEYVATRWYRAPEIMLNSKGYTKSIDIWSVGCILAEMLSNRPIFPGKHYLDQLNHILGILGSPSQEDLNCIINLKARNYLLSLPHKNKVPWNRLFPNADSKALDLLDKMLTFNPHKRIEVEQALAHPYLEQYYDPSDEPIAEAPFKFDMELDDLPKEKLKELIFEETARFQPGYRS

Sequence of NDR2 (Q9Y2H1 whole entry): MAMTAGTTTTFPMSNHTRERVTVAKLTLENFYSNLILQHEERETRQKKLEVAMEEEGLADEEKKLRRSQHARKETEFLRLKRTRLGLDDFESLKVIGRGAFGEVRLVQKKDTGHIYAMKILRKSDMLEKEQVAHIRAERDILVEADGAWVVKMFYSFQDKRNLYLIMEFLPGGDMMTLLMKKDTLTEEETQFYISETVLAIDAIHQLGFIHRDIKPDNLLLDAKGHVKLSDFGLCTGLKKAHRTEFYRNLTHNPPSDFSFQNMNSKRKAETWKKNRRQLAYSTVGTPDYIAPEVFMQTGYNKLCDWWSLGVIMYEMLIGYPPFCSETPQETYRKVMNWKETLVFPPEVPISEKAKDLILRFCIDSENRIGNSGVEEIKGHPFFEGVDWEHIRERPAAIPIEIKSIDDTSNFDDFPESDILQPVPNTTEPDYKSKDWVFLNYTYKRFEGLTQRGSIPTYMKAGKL

SMILES: CNc1ncc2cc(-c3ccc(-c4cccc(C)n4)cc3Cl)c(=O)n(CCCCN)c2n1 [compound 20, MRLW5]
- ΔTm MRLW5 (20) (NDR2): 4.6 °C
- ΔTm MRLW5 (20) (MST1): 5.6 °C
- ΔTm MRLW5 (20) (FES): 5.9 °C
- ΔTm MRLW5 (20) (EphB3): 2.5 °C
- ΔTm MRLW5 (20) (CaMKK2): 1.4 °C
- ΔTm MRLW5 (20) (DAPK3): 1.4 °C
- ΔTm MRLW5 (20) (Erk2): 1.3 °C

SMILES: CNc1ncc2cc(-c3ccc(-c4cccc(C)n4)cc3Cl)c(=O)n(C[C@H]3CC[C@H](N)CC3)c2n1 [compound 23, 23]
- ΔTm 23 (NDR2): 3.5 °C
- ΔTm 23 (MST1): 7.9 °C
- ΔTm 23 (FES): 5.5 °C
- ΔTm 23 (EphB3): 3.6 °C
- ΔTm 23 (CaMKK2): 4.9 °C
- ΔTm 23 (DAPK3): 2.8 °C
- ΔTm 23 (Erk2): 2.7 °C

SMILES: CNc1ncc2cc(-c3ccc(-c4cccc(C)n4)cc3Cl)c(=O)n(CCC3CCNCC3)c2n1 [compound 22, 6-(2-Chloro-4-(6-methylpyridin-2-yl)phenyl)-2-(methylamino)-8-(2-(piperidin-4-yl)ethyl)pyrido[2,3-d]pyrimidin-7(8H)-one]
- ΔTm 22 (NDR2): 5.1 °C
- ΔTm 22 (MST1): 6.0 °C
- ΔTm 22 (FES): 5.4 °C
- ΔTm 22 (EphB3): 2.6 °C
- ΔTm 22 (CaMKK2): 2.3 °C
- ΔTm 22 (DAPK3): 2.4 °C
- ΔTm 22 (Erk2): 2.8 °C

Next, values leading:

- ΔTm MR24 (24) (NDR2): 2.6 °C
- ΔTm MR24 (24) (MST1): -0.6 °C
- ΔTm MR24 (24) (FES): 4.3 °C
- ΔTm MR24 (24) (EphB3): 0.2 °C
- ΔTm MR24 (24) (CaMKK2): 0.2 °C
- ΔTm MR24 (24) (DAPK3): 0.2 °C
- ΔTm MR24 (24) (Erk2): -0.9 °C
SMILES: Cc1cccc(-c2ccc(-c3cc4cnc(NC(CO)CO)nc4n(CCCCN)c3=O)c(Cl)c2)n1 [compound 24, 8-(4-Aminobutyl)-6-(2-chloro-4-(6-methylpyridin-2-yl)phenyl)-2-((1,3-dihydroxypropan-2-yl)amino)pyrido[2,3-d]pyrimidin-7(8H)-one]

- ΔTm 25 (NDR2): 6.7 °C
- ΔTm 25 (MST1): -1.4 °C
- ΔTm 25 (FES): 5.9 °C
- ΔTm 25 (EphB3): 2.8 °C
- ΔTm 25 (CaMKK2): 3.3 °C
- ΔTm 25 (DAPK3): 0.8 °C
- ΔTm 25 (Erk2): 3.1 °C
SMILES: Cc1cccc(-c2ccc(-c3cc4cnc(NCCCc5ccc(N)cc5)nc4n(CCCCN)c3=O)c(Cl)c2)n1 [compound 25, 8-(4-Aminobutyl)-2-((3-(4-aminophenyl)propyl)amino)-6-(2-chloro-4-(6-methylpyridin-2-yl)phenyl)pyrido[2,3-d]pyrimidin-7(8H)-one]

- ΔTm MR26 (26) (NDR2): 5.2 °C
- ΔTm MR26 (26) (MST1): -0.5 °C
- ΔTm MR26 (26) (FES): 5.6 °C
- ΔTm MR26 (26) (EphB3): 2.4 °C
- ΔTm MR26 (26) (CaMKK2): 1.5 °C
- ΔTm MR26 (26) (DAPK3): 0.0 °C
- ΔTm MR26 (26) (Erk2): 0.2 °C
SMILES: Cc1cccc(-c2ccc(-c3cc4cnc(NCCCN5CCOCC5)nc4n(CCCCN)c3=O)c(Cl)c2)n1 [compound 26, MR26]
